Like-named read-outs stand apart in the source and are kept apart here.
Tests used:
A1 receptors = biological target: T1, A1 receptors (Rattus norvegicus, UniProt P25099); test: biochemical; format: binding; details: for inhibition at 100 µM: 10^-4 M; for Ki: rat brain membranes, read-out: Ki rA1; for greater affinity to A1 than A2a adenosine receptors: selectivity in words
T1 sequence (P25099 1-326): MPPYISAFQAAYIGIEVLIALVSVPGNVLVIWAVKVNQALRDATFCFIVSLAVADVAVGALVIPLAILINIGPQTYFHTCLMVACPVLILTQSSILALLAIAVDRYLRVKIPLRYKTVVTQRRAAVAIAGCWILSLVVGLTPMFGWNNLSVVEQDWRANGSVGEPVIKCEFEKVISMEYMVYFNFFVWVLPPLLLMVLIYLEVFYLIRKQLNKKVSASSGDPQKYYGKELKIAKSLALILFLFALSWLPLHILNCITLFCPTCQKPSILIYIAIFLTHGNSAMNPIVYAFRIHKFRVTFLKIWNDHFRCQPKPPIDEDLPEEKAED
Procedure: ^a Displacement of specific [^3 H] PIA binding in rat brain
percentage of specific binding displaced at 100 μM.

A2a receptors = biological target: T2, A2a receptors (Rattus norvegicus, UniProt P30543); test: radioligand binding, displacement of specific [3H]CGS 21680 binding in rat striatal membranes; details: for Ki: [3H]CGS 21680, rat striatal membranes; for inhibition at 100 µM: 10^-4 M
T2 construct: Displacement of specific [^3 H]; from tissue; host or cells: rat striatal membranes
Procedure: ^b Displacement of specific [^3 H]
or as a percentage of specific binding displaced at 100 μM.

[1] = Table 12, read-out: % inhibition rA1
[2] = Table 12, read-out: displacement of specific binding rA2A
[3] = Table 12, read-out: % inhibition rA2A
[4] = Table 12, read-out: displacement of specific binding rA1
[5] = Table 11, read-out: % inhibition rA1
[6] = Table 11, read-out: % inhibition rA2A
[7] = Table 11, read-out: displacement of specific binding rA2A
[8] = Table 11, read-out: displacement of specific binding rA1

T2 sequence (P30543 whole entry): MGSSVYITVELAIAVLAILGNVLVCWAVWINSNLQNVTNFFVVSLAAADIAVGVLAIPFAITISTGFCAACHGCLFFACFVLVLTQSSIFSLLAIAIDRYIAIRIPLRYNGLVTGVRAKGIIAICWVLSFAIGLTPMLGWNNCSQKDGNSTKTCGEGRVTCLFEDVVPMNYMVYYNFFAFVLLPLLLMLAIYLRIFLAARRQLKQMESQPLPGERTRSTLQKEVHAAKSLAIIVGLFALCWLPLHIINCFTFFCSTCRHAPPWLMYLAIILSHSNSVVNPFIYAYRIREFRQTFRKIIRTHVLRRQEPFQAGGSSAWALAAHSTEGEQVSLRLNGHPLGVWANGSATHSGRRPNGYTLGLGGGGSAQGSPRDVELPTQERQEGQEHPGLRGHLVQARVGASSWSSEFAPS

Work on `CCOC(=O)C1=C(C)NC(C)=C(C(=O)OC)C1c1ccc([N+](=O)[O-])cc1` (racemic) [Compound 67, 3-methyl-5-ethyl-2,6-dimethyl-4-(4-nitrophenyl)-1,4(R,S)-dihydropyridine-3,5-dicarboxylate] yielded an inhibition at 100 µM (A1 receptors; Table 9, read-out: % of specific binding displaced rA1) of 37 ± 14% and a Ki (A2a receptors; Table 9, read-out: Ki rA2A) of 35.6 µM.

Work on `CCOC(=O)C1=C(C)NC(c2ccccc2)=C(C(=O)OCC)C1C#Cc1cccc(C)c1` (racemic) [Compound 120, 3,5-Diethyl 2-methyl-4-(3-methylphenylethynyl)-6-phenyl-1,4-(±)-dihydropyridine-3,5-dicarboxylate] yielded an inhibition at 100 µM (A1 receptors; [1]) of 41% and an inhibition at 100 µM (A2a receptors; [2]) of less than 10%.

With `CCOC(=O)C1=C(C)NC(c2ccccc2)=C(C(=O)OCc2ccccc2C)C1C#Cc1ccccc1` (racemic) [Compound 122a] the inhibition at 100 µM (A1 receptors; [1]) was 16 ± 1% and the inhibition at 100 µM (A2a receptors; [3]) was 13%.

With `CCOC(=O)C1=C(C)NC(c2ccccc2)=C(C(=O)OCc2cccc(C)c2)C1C#Cc1ccccc1` (racemic) [Compound 122b, 3-Ethyl 5-(3-methylbenzyl)-4-phenylethynyl-6-phenyl-1,4(±)-dihydropyridine-3.5-dicarboxylate] the inhibition at 100 µM (A1 receptors; [4]) was less than 10% and the inhibition at 100 µM (A2a receptors; [3]) was 16 ± 2%.

`CCOC(=O)C1=C(C)NC(c2ccccc2)=C(C(=O)OCc2ccc(C)cc2)C1C#Cc1ccccc1` (racemic) [Compound 122c] was tested, and the inhibition at 100 µM (A1 receptors; [4]) was less than 10% and the inhibition at 100 µM (A2a receptors; [3]) was 17 ± 3%.

`CCOC(=O)C1=C(C)NC(c2ccccc2)=C(C(=O)OCc2ccc(C(F)(F)F)cc2)C1C#Cc1ccccc1` (racemic) [Compound 122d] was tested, and the inhibition at 100 µM (A1 receptors; [1]) was 32 ± 3% and the inhibition at 100 µM (A2a receptors; [3]) was 15%.

Work on `CCOC(=O)C1=C(C)NC(c2ccccc2)=C(C(=O)OCc2cccc([N+](=O)[O-])c2)C1C#Cc1ccccc1` (racemic) [Compound 122f, 3-Ethyl 5-(3-nitrobenzyl)-4-phenylethynyl-6-phenyl-1,4(±)-dihydropyridine-3,5-dicarboxylate] yielded an inhibition at 100 µM (A1 receptors; [1]) of 28 ± 2% and an inhibition at 100 µM (A2a receptors; [2]) of less than 10%.

Work on `CCOC(=O)C1=C(C)NC(c2ccccc2)=C(C(=O)OCc2ccc([N+](=O)[O-])cc2)C1C#Cc1ccccc1` (racemic) [Compound 122g] yielded an inhibition at 100 µM (A1 receptors; [1]) of 29 ± 2%.

Compound `CCCOC(=O)C1=C(C)NC(c2ccccc2)=C(C(=O)OCc2ccccc2)C1C#Cc1ccccc1` (racemic) [Compound 124, 3-Propyl 5-benzyl 2-methyl-4-phenylethynyl-6-phenyl-1,4-(±)-dihydropyridine-3,5-dicarboxylate] has an inhibition at 100 µM (A1 receptors; [1]) of 27 ± 7% and an inhibition at 100 µM (A2a receptors; [3]) of 16%.

In the case of `CCOC(=O)C1=C(C)NC(c2ccccc2)=C(C(=O)OCCc2ccccc2)C1C#Cc1ccccc1` (racemic) [Compound 125, 3-Ethyl 5-phenylethyl 2-methyl-4-phenylethynyl-6-phenyl-1,4-(±)-dihydropyridine-3.5-dicarboxylate], the inhibition at 100 µM (A1 receptors; [4]) is reported as less than 10% and the inhibition at 100 µM (A2a receptors; [2]) is reported as less than 10%.

Compound `CCOC(=O)C1=C(C)NC(c2ccccc2)=C(C(=O)OCCCc2ccccc2)C1C#Cc1ccccc1` (racemic) [Compound 126, 3-Ethyl 5-phenylpropyl 2-methyl-4-phenylethynyl-6-phenyl-1,4-(±)-dihydropyridine-3,5-dicarboxylate] has an inhibition at 100 µM (A1 receptors; [4]) of less than 10% and an inhibition at 100 µM (A2a receptors; [2]) of less than 10%.

For `CCOC(=O)C1=C(C)NC(c2ccccc2)=C(C(=O)OC(C)(C)C)C1C#Cc1ccccc1` (racemic) [Compound 127, 3-Ethyl 5-t-butyl 2-methyl-4-phenylethynyl-6-phenyl-1,4-(±)-dihydropyridine-3.5-dicarboxylate], the Ki (A1 receptors; Table 12, [3H]R-PIA) was 25.3 µM and the inhibition at 100 µM (A2a receptors; [3]) was 27 ± 5%.

`CCOC(=O)C1=C(C)N(COC)C(c2ccccc2)=C(C(=O)OCC[Si](C)(C)C)C1C#Cc1ccccc1` (racemic) [Compound 137, 1-Methoxymethyl 3-ethyl 5-(2-trimethylsilyl)-ethyl 2-methyl-4-phenylethynyl-6-phenyl-1,4-(±)-dihydropyridine-3,5-dicarboxylate] showed an inhibition at 100 µM (A1 receptors; [4]) of less than 10% and an inhibition at 100 µM (A2a receptors; [3]) of 27 ± 4%.

With `CCOCN1C(C)=C(C(=O)OCC)C(C#Cc2ccccc2)C(C(=O)OCC[Si](C)(C)C)=C1c1ccccc1` (racemic) [Compound 138, 1-Ethoxymethyl 3-ethyl 5-(2-trimethylsilyl)-ethyl 2-methyl-4-phenylethynyl-6-phenyl-1,4-(±)-dihydropyridine-3,5-dicarboxylate] the inhibition at 100 µM (A1 receptors; [1]) was 13 ± 3% and the inhibition at 100 µM (A2a receptors; [3]) was 19%.

With `COc1cc(OC)c2c(=O)c(OC)c(-c3ccccc3)oc2c1` [Compound 2, 3,5,7-Trimethoxyflavone] the Ki (A1 receptors; Table 3, [3H]PIA) was 0.509 ± 0.049 µM and the Ki (A2a receptors; Table 3, read-out: Ki rA2a) was 6.45 ± 1.48 µM.

In the case of `O=c1c(O)c(-c2ccc(O)cc2O)oc2cc(O)cc(O)c12` [Compound 5a, 2',3,4',5,7-pentahydroxyflavone, reference compound], the Ki (A1 receptors; Table 3, [3H]PIA) is reported as 13.8 µM and the Ki (A2a receptors; Table 3, read-out: Ki rA2a) is reported as 17.3 µM.

With `O=c1cc(-c2ccccc2)oc2ccccc12` [Compound 11a, flavone, reference compound] the Ki (A1 receptors; Table 3, [3H]PIA) was 3.28 ± 0.92 µM and the Ki (A2a receptors; Table 3, read-out: Ki rA2a) was 3.45 ± 1.16 µM.

`O=C1CC(c2ccccc2)Oc2ccccc21` (stereo not drawn) [Compound 12, flavanone, reference compound] gave a Ki (A1 receptors; Table 4, [3H]PIA) of 32 ± 4.8 µM.

`O=C1CC(c2ccccc2O)Oc2ccccc21` (stereo not drawn) [Compound 13, reference compound] showed a Ki (A1 receptors; Table 4, [3H]PIA) of 2.64 ± 0.56 µM and a Ki (A2a receptors; Table 4, read-out: Ki rA2a) of 17.6 ± 2.1 µM.

Work on `COc1c2ccoc2cc2oc(C)cc(=O)c12` [Compound 17, 4-methoxy-7-methyl-5H-furo[3,2-g][1]-benzopyrano-5-one, reference compound] yielded an inhibition at 100 µM (A1 receptors; Table 5, read-out: % of specific binding displaced rA1) of 36 ± 3% and a Ki (A2a receptors; Table 5, read-out: Ki rA2a) of 42.4 ± 11.9 µM.

`COC(=O)C1=C(C)NC(C)=C(C(=O)OCCN(C)Cc2ccccc2)C1c1cccc([N+](=O)[O-])c1` (stereo not drawn) [Compound 63, reference compound] was tested, and the Ki (A1 receptors; Table 9, [3H]PIA) was 19.6 µM, the “greater affinity to A1 than A2a adenosine receptors” value (shortened to “greater affinity”) (A1 receptors) was “greater affinity to A1 adenosine receptors than A2a receptors” and the Ki (A2a receptors; Table 9, read-out: Ki rA2A) was 63.8 µM.

`COC(=O)C1=C(C)NC(C)=C([N+](=O)[O-])C1c1ccccc1C(F)(F)F` (stereo not drawn) [Compound 69, reference compound] was tested, and the “greater affinity” value (A1 receptors) was “greater affinity to A1 adenosine receptors than A2a receptors”.

For `COC(=O)C1=C(C)NC(C)=C([N+](=O)[O-])C1c1ccccc1C(F)(F)F` (stereo not drawn) [Compound 70, reference compound], the “greater affinity” value (A1 receptors) was “greater affinity to A1 adenosine receptors than A2a receptors”.

`CCOC(=O)C1=C(C)NC(c2ccccc2)=C(C(=O)OCc2ccccc2)C1/C=C/c1ccccc1` (stereo not drawn) [Compound 99] gave an inhibition at 100 µM (A1 receptors; [5]) of 35 ± 3% and an inhibition at 100 µM (A2a receptors; [6]) of 15%.

In the case of `CCOC(=O)C1=C(C)NC(c2ccccc2)=C(C(=O)OCc2ccccc2)C1/C=C/c1ccc([N+](=O)[O-])cc1` (stereo not drawn) [Compound 100], the inhibition at 100 µM (A1 receptors; [5]) is reported as 33% and the inhibition at 100 µM (A2a receptors; [7]) is reported as less than 10%.

In the case of `CCOC(=O)C1=C(c2ccccc2)NC(C)=C(C(=O)OCc2ccccc2)C1/C=C/c1ccccc1` (stereo not drawn) [Compound 105], the inhibition at 100 µM (A1 receptors; [8]) is reported as less than 10% and the inhibition at 100 µM (A2a receptors; [6]) is reported as 16 ± 11%.

`CCOC(=O)C1=C(c2ccccc2)NC(C)=C(C(=O)OCc2ccccc2)C1/C=C/c1ccc([N+](=O)[O-])cc1` (stereo not drawn) [Compound 106] gave an inhibition at 100 µM (A1 receptors; [8]) of less than 10% and an inhibition at 100 µM (A2a receptors; [7]) of less than 10%.

`CCOC(=O)C1=C(c2ccccc2)NC(C)=C(C(=O)OCc2ccccc2)C1C#Cc1ccccc1` (stereo not drawn) [Compound 107] gave an inhibition at 100 µM (A1 receptors; [5]) of 24 ± 4% and an inhibition at 100 µM (A2a receptors; [7]) of less than 10%.

`C=CCOC(=O)C1=C(C)NC(c2ccccc2)=C(C(=O)OCC)C1/C=C/c1ccc([N+](=O)[O-])cc1` (stereo not drawn) [Compound 117] was tested, and the inhibition at 100 µM (A1 receptors; [4]) was less than 10% and the inhibition at 100 µM (A2a receptors; [3]) was 15%.

`CCOC(=O)C1=C(C)NC(c2ccccc2)=C(C(=O)OCC)C1/C=C/c1ccc([N+](=O)[O-])cc1` (stereo not drawn) [Compound 118] was tested, and the inhibition at 100 µM (A1 receptors; [1]) was 31% and the inhibition at 100 µM (A2a receptors; [3]) was 26%.

With `CCOC(=O)C1=C(C)NC(c2ccccc2)=C(C(=O)OCc2ccccc2)C1C#Cc1ccccc1` (stereo not drawn) [Compound 121] the inhibition at 100 µM (A1 receptors; [1]) was 25 ± 4%.

`CCOC(=O)C1=C(C)NC(c2ccccc2)=C(C(=O)OCc2cccc(I)c2)C1C#Cc1ccccc1` (stereo not drawn) [Compound 122e] showed an inhibition at 100 µM (A1 receptors; [1]) of 14% and an inhibition at 100 µM (A2a receptors; [3]) of 19 ± 7%.

Work on `CCNC(=O)C1=C(c2ccccc2)N(COCC)C(C)=C(C(=O)OCC)C1C#Cc1ccccc1` (stereo not drawn) [Compound 140] yielded an inhibition at 100 µM (A2a receptors; [3]) of 35%.

With `CC(C)(C)OC(=O)Nc1nc2ccc(Cl)cc2c2nc(-c3ccco3)nn12` [Compound 150, 5-[(tert.-Butoxycarbonyl)amino]-9-chloro-2-(2-furyl)[1,2,4]triazolo[1,5-c]quinazoline] the Ki (A1 receptors; Table 15, [3H]PIA) was 0.19 ± 0.016 µM and the Ki (A2a receptors; Table 15, read-out: Ki rA2A) was 0.092 ± 0.008 µM.

`CCCn1c(=O)n2nc(-c3ccco3)nc2c2cc(Cl)ccc21` [Compound 159, 9-Chloro-2-(2-furyl)[1,2,4]triazolo[1,5-c]quinazolin-6-propyl-5-one] showed a Ki (A1 receptors; Table 15, [3H]PIA) of 2 µM.

For `CCOC(=O)C1=C(c2ccccc2)NC(C)=C(C(=O)OCC(O)CO)C1C#Cc1ccccc1` (stereo not drawn) [Compound 212a], the inhibition at 100 µM (A2a receptors; Table 14, read-out: displacement of specific binding rA2A) was less than 10%.

`CCOC(=O)C1=C(c2ccccc2)NC(C)=C(C(=O)OCC(O)CO)C1C#Cc1ccccc1` (stereo not drawn) [Compound 213a] gave an inhibition at 100 µM (A2a receptors; Table 14, read-out: % inhibition rA2A) of 39 ± 8%.

Reference: patent publication US6066642A, “Dihydropyridine-, pyridine-, benzopyran-4-one- and triazoloquinazoline derivative, their preparation and their use as adenosine receptor antagonists” (priority 1998, dated 2000)
